# Measured values reported in patent US9421237B2, “Tripeptide boronic acid or boronic ester, preparative method and use thereof” (PEKING UNIVERSITY, priority 2009, dated 2016).
# What was measured:
# [1] = test system: HL-60 human leukemia cell; test: Preliminary anti-tumor screening in vitro, MTT method; type: cell-based; design: key to Test results: +++: inhibition rates at three doses are greater than 50%; ++: inhibition rates at two doses are greater than 50%; +: inhibition rate at one dose is greater than 50%; conditions: HL-60, MTT; for Test results: number of doses with inhibition > 50%; for inhibition at 0.05 µM / inhibition at 0.5 µM / inhibition at 5 µM: Homo sapiens, read-out: Inhibition rate %
# Description: (§1) The test methods used in this test example is the routine method for anti-tumor activities test in pharmaceutical area, for example, referring to the following reference: (J. Immunol Method, 1983, 65, 55).
# (§2) Test models: A: MTT method (HL-60 human leukemia); B: SRB method (BGC-823 human gastric cancer); C: SRB method (Bel-7402 human hepatocarcinoma); D: SRB method (KB human nasopharyngeal carcinoma).
# (§3) The aforesaid tests were carried out with the compounds of Examples 1-26 in the present invention, test results are shown in Tables 2-5.
# [2] = biological target: T1, 20S proteasome extracted from rat liver, chymotryptic-like (CT-L) activity (Rattus norvegicus, UniProt P18421+P28075); test: Proteasome inhibition, chymotryptic-like (CT-L) activity, fluorescent peptide Suc-leu-leu-Val-Tyr-AMC; type: biochemical; conditions: rat liver 20S proteasome, 37° C., 1 h
# T1 construct: 20S proteasome extracted from rat liver; from tissue; host or cells: rat liver
# Description: (§4) The activities of the proteasome were assayed using fluorescent peptides: Suc-leu-leu-Val-Tyr-AMC (Suc represents succinyl, and AMC represents 7-amino-4-methylcoumarin, purchased from SIGMA) for determining chymotryptic-like (CT-L) activity; Z-Ala-Arg-Arg-AMC (Z represents benzyloxycarbonyl, purchased from Calbiochem) for determining trypsin-like (TL) activity; and Z-leu-leu-Glu-βNA (βNA represents β-naphtylamide, purchased from SIGMA) for determining peptidyl-glutamyl-peptide-hydrolyzing (PGPH) enzyme activity.
# (§5) Method for the aforesaid activity assays is as follows: 1 μg of 20S proteasome extracted from rat liver was incubated with a 100 μL solution containing various concentrations of compounds, 50 μM fluorescent peptides and 20 mM Tris-HCl at 37° C. for 1 h, respectively. The fluorescence released from AMC and RNA reagents was measured by a spectrofluorimeter Fluostar OPTIMA and BMG Germany at excitation/emission wavelengths of 380/440 nm and 335/410 nm, respectively. 0.1% DMSO was used as a solvent control. Compared with the fluorescence of solvent control, an inhibition rate was calculated.
# [3] = biological target: T2, 20S proteasome extracted from rat liver, peptidyl-glutamyl-peptide-hydrolyzing (PGPH) enzyme activity (Rattus norvegicus, UniProt P28073+Q9JHW0); test: Proteasome inhibition, PGPH activity, fluorescent peptide Z-leu-leu-Glu-βNA; type: biochemical; conditions: rat liver 20S proteasome, 37° C., 1 h
# T2 construct: 20S proteasome extracted from rat liver; from tissue; host or cells: rat liver
# Description: as §4
# as §5, with “calculated. Said assays used anticancer drug bortezomib (leukemia drug), namely PS341 as compound for positive control.” for “calculated.”
# [4] = biological target: T3, 20S proteasome extracted from rat liver, trypsin-like (TL) activity (Rattus norvegicus, UniProt P40112+Q9JHW0); test: Proteasome inhibition, trypsin-like (TL) activity, fluorescent peptide Z-Ala-Arg-Arg-AMC; type: biochemical; conditions: rat liver 20S proteasome, 37° C., 1 h; read-out: T-L (IC50)
# T3 construct: 20S proteasome extracted from rat liver; from tissue; host or cells: rat liver
# Description: as §4
# as §5, with “calculated. Said assays used anticancer drug bortezomib (leukemia drug), namely PS341 as compound for positive control.” for “calculated.”
# [5] = test system: BGC-823 human gastric cancer cell; test: Preliminary anti-tumor screening in vitro, SRB method; type: cell-based; design: key to Test results: +++: inhibition rates at three doses are greater than 50%; ++: inhibition rates at two doses are greater than 50%; +: inhibition rate at one dose is greater than 50%; conditions: BGC-823, SRB; for Test results: number of doses with inhibition > 50%; for inhibition at 0.05 µM / inhibition at 0.5 µM / inhibition at 5 µM: Homo sapiens, read-out: Inhibition rate %
# Description: as §1, §2, §3
# [6] = test system: Bel-7402 human hepatocarcinoma cell; test: as above; type: cell-based; design: key to Test results: +++: inhibition rates at three doses are greater than 50%; ++: inhibition rates at two doses are greater than 50%; +: inhibition rate at one dose is greater than 50%; conditions: Bel-7402, SRB; for Test results: number of doses with inhibition > 50%; for inhibition at 0.05 µM / inhibition at 0.5 µM / inhibition at 5 µM: Homo sapiens, read-out: Inhibition rate %
# Description: as §1, §2, §3
# [7] = test system: KB human nasopharyngeal carcinoma cell; test: as above; type: cell-based; design: key to Test results: +++: inhibition rates at three doses are greater than 50%; ++: inhibition rates at two doses are greater than 50%; +: inhibition rate at one dose is greater than 50%; conditions: for inhibition at 0.05 µM / inhibition at 0.5 µM / inhibition at 5 µM: Homo sapiens, read-out: Inhibition rate %; for Test results: number of doses with inhibition > 50%
# Description: as §1, §2, §3
# [8] = test system: BGC-823 (human gastric carcinoma cell strain); test: In vitro anti-tumor activity (IC50), standard MTT method; type: cell-based; conditions: 72 h, average of three determinations
# Description: (§6) HL-60, BXPC-3 and U266 were obtained from the American Type Culture Collection (Manassas, Va.), and BGC-823 (human gastric carcinoma cell strain) was obtained from China Pharmaceutical University.
# (§7) Test methods: HL-60 cells were cultured in IMDM medium containing 20% fetal bovine serum at 37° C. in 5% CO2; BGC-823 cells and BXPC-3 cells were cultured in RPMI1640 medium containing 10% fetal bovine serum at 37° C. in 5% CO2; U266 cells were cultured in RPMI1640 medium containing 15% fetal bovine serum at 37° C. in 5% CO2.
# (§8) The cell growth was measured by the standard MTT method. A dispersions (150 μL, containing 3000 cells) medium was added into each well of a 96-well plate and allowed to grow, after 24 h, ten kinds of medium (50 μL) containing different concentrations of drugs were added into the corresponding wells, and continued to incubate for 72 h. Then a solution containing 5 mg/ml MTT (20 μL) was added into each well and incubated for another 4 h at 37° C. The plate was then centrifugated at 1000 rpm at 4° C. for 5 min, and the medium in upper layer was carefully discarded. The precipitates were dissolved in 100 μL of DMSO, and absorbance was read with an Infinite M200 (Tecan, Austria) microplate reader at 540 nm.
# (§9) The result was expressed as IC50 value, which is the average value of three independent determinations.
# [9] = test system: U266 (multiple myeloma cell strain); test: as above; type: cell-based; conditions: Homo sapiens, U-266, 72 h, average of three determinations
# Description: as §6, §7, §8, §9
# [10] = test system: HL-60 (promyelocytic leukemia cell strain); test: as above; type: cell-based; conditions: Homo sapiens, 72 h, average of three determinations
# Description: as §6, §7, §8, §9
# [11] = test system: BXPC-3 (human pancreatic cancer cell strain); test: as above; type: cell-based; conditions: 72 h, average of three determinations
# Description: as §6, §7, §8, §9
melting point [°C],IC50 [2] [nM],IC50 [3] [nM],IC50 [4] [nM],SMILES,Test results [1],inhibition at 0.05 µM [1] [%],inhibition at 0.5 µM [1] [%],inhibition at 5 µM [1] [%],Test results [5],inhibition at 0.05 µM [5] [%],inhibition at 0.5 µM [5] [%],inhibition at 5 µM [5] [%],Test results [6],inhibition at 0.05 µM [6] [%],inhibition at 0.5 µM [6] [%],inhibition at 5 µM [6] [%],inhibition at 0.05 µM [7] [%],inhibition at 0.5 µM [7] [%],inhibition at 5 µM [7] [%],Test results [7],other results
90 to 92,0.295 ± 0.049,4.76 ± 1.31,> 20,"CC(C)C[C@H](NC(=O)[C@H](Cc1ccccc1)NC(=O)[C@H](Cc1ccc(O)cc1)NC(=O)c1cnccn1)B1OC2CC3C[C@@H](C3(C)C)[C@]2(C)O1 (stereo partly drawn) [Compound 5d, Pinanediol N-pyrazineformyl-L-tyrosyl-L-phenylalanyl-L-leucine Borate]",+,-11.8,35.9,88.9,++,23.6,93.6,97.8,++,5.52,52,93.1,0.83,73.2,94.8,++,–
119 to 120,0.335 ± 0.031,5.39 ± 0.368,> 20,"CC(C)C[C@H](NC(=O)[C@H](Cc1ccc(O)cc1)NC(=O)[C@H](Cc1ccccc1)NC(=O)c1cnccn1)B1OC2CC3C[C@@H](C3(C)C)[C@]2(C)O1 (stereo partly drawn) [Compound 5c, Pinanediol N-pyrazineformyl-L-phenylalanyl-L-tyrosyl-L-leucine Borate]",+,-10.5,1.94,99,++,3.19,56,96.1,+,4.18,16.6,91.1,1.84,29.8,91.4,+,–

# The remaining lines, values behind:
SMILES,melting point [°C],IC50 [2] [nM],IC50 [3] [nM],IC50 [4] [nM],Test results [1],inhibition at 0.05 µM [1] [%],inhibition at 0.5 µM [1] [%],inhibition at 5 µM [1] [%],Test results [5],inhibition at 0.05 µM [5] [%],inhibition at 0.5 µM [5] [%],inhibition at 5 µM [5] [%],Test results [6],inhibition at 0.05 µM [6] [%],inhibition at 0.5 µM [6] [%],inhibition at 5 µM [6] [%],inhibition at 0.05 µM [7] [%],inhibition at 0.5 µM [7] [%],inhibition at 5 µM [7] [%],Test results [7],other results
"CC(C)C[C@H](NC(=O)[C@H](Cc1ccc2ccccc2c1)NC(=O)[C@H](CC(C)C)NC(=O)c1cnccn1)B1OC2CC3C[C@@H](C3(C)C)[C@]2(C)O1 (stereo partly drawn) [Compound 5f, Pinanediol N-pyrazineformyl-L-leucyl-L-naphthylalanyl-L-leucineborate]",140 to 142,0.37 ± 0.141,3.91 ± 1.72,> 20,++,-19.9,81.9,88.6,++,38.3,89.2,83,++,3.18,83.9,92.3,3.74,93.4,95.3,++,–
"CC(C)C[C@H](NC(=O)[C@H](Cc1ccccc1)NC(=O)[C@H](Cc1ccc2ccccc2c1)NC(=O)c1cnccn1)B1OC2CC3C[C@@H](C3(C)C)[C@]2(C)O1 (stereo partly drawn) [Compound 5b, Pinanediol N-pyrazineformyl-L-naphthylalanyl-L-phenylalanyl-L-leucine Borate]",98 to 100,0.22 ± 0.106,> 20,> 20,++,21.1,88.1,88.1,+++,68.6,94.8,96.5,++,35.9,66.7,91,40.4,95.1,95.8,++,–
"CC(C)C[C@H](NC(=O)[C@H](CC(C)C)NC(=O)[C@H](Cc1ccc2ccccc2c1)NC(=O)c1cnccn1)B(O)O [Compound 6m, N-pyrazineformyl-L-naphthylalanyl-L-leucyl-L-leucine Boronic Acid]",–,0.22 ± 0.07,8.33 ± 2.49,> 20,++,4.61,85.2,87.8,+++,60.3,81.9,97,++,30.3,57.7,95.2,40.8,86.4,94.7,++,IC50 [8]: 1720 nM; IC50 [9]: 120 nM; IC50 [10]: 15 nM; IC50 [11]: 43.5 nM
"CC(C)C[C@H](NC(=O)[C@H](CC(C)C)NC(=O)[C@H](Cc1ccccc1)NC(=O)c1cnccn1)B1OC2CC3C[C@@H](C3(C)C)[C@]2(C)O1 (stereo partly drawn) [Compound 5k, Pinanediol N-pyrazineformyl-L-phenylalanyl-L-leucyl-L-leucine Borate]",68 to 70,0.287 ± 0.019,2.73 ± 1.04,> 20,–,–,–,–,–,–,–,–,–,–,–,–,–,–,–,–,–
